Test results as given in the supplement of paper PMC9938120.

Columns and labels:
Assay in all cases: drug sensitivity score (DSS3, normalised partial AUC of % inhibition dose-response) (DSS (score)); higher = more sensitive (stronger inhibition of viability); extreme values may be limits of the assay
Conditions in all cases: 72 h; library: FO5A; assay format: 2D, 384-well, CellTiter-Glo
FMOC06 = test system: FMOC06 (patient-derived mucinous ovarian cancer cells)
In short: (§1)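 Patient-derived ovarian cancer cells (early passage, under 10) were dispensed onto 384-well flat clear-bottom plates pre-plated with compounds at five concentrations covering a 10,000-fold range. Plates were incubated 72 h at 37 °C, 5% CO2, and viability was read with CellTiter-Glo. Data were processed in Breeze. The drug sensitivity score (DSS3) is a partial area under the percent-inhibition dose-response curve, divided by the log of the upper asymptote; higher means more sensitive.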

FMOC24 = test system: FMOC24 (patient-derived high-grade serous ovarian cancer cells)
In short: as §1

FMOC02_2 = test system: FMOC02_2 (patient-derived low-grade serous ovarian cancer cells)
In short: as §1

FMOC22 = test system: FMOC22 (patient-derived mucinous ovarian cancer cells)
In short: as §1

FMOC14 = test system: FMOC14 (patient-derived high-grade serous ovarian cancer cells)
In short: as §1

FMOC03 = test system: FMOC03 (patient-derived mucinous ovarian cancer cells)
In short: as §1

FMOC09 = test system: FMOC09 (patient-derived high-grade serous ovarian cancer cells)
In short: as §1

FMOC25_2 = test system: FMOC25_2 (patient-derived low-grade serous ovarian cancer cells)
In short: as §1

FMOC02_3 = test system: FMOC02_3 (patient-derived low-grade serous ovarian cancer cells)
In short: as §1

Structure (SMILES) | drug sensitivity score (FMOC06) | drug sensitivity score (FMOC24) | drug sensitivity score (FMOC02_2) | drug sensitivity score (FMOC22) | drug sensitivity score (FMOC14) | drug sensitivity score (FMOC03) | drug sensitivity score (FMOC09) | drug sensitivity score (FMOC25_2) | drug sensitivity score (FMOC02_3)
COc1cccc2c1C(=O)c1c(O)c3c(c(O)c1C2=O)C[C@@](O)(C(=O)CO)C[C@@H]3O[C@H]1C[C@H](N)[C@@H](O)[C@H](C)O1 [Epirubicin] | 4.2 | 4.8 | 3.9 | 5.7 | 3.8 | 4.3 | 5.2 | 8.2 | 7
Cc1c(-c2ccc(N3CCc4cccc(C(=O)Nc5nc6ccccc6s5)c4C3)nc2C(=O)O)cnn1CC12CC3CC(CC(C3)C1)C2 | 16.8 | 23 | 14.5 | 5.7 | 8.8 | 12.5 | 3.1 | 24 | 26.7
Cc1sc2c(c1C)C(c1ccc(Cl)cc1)=N[C@@H](CC(=O)Nc1ccc(O)cc1)c1nnc(C)n1-2 [Birabresib] | 5.1 | 7.65 | 13.5 | 6.7 | 1.1 | 5.5 | 3.6 | 8.5 | 18.5
CCNCCS(=O)(=O)NC[C@@]1(c2ccccc2)SC(NC(=O)C(C)(C)C)=NN1C(=O)C(C)(C)C [Litronesib] | 0.7 | 0 | 4.9 | 9.2 | 0 | 7.9 | 6.8 | 13.5 | 11.6
Cc1noc2c1-c1ccccc1C(c1ccc(Cl)cc1)=N[C@H]2CC(N)=O [CPI-0610] | 0.6 | 6.4 | 7.8 | 3.3 | 1.5 | 4.3 | 4.3 | 4 | 12.5
COc1ccc2[nH]cc(/C=C3\C(=O)Nc4ccc(NC(=O)CCN5CCCCC5)cc43)c2c1 | 6.4 | 12.7 | 12.7 | 6.1 | 5.1 | 7.6 | 5.4 | 8.6 | 10.8
CCCCCCCCCCCCCCCCOP(=O)([O-])OCC[N+](C)(C)C [Miltefosine] | 9.1 | 9.8 | 5.5 | 10 | 8.7 | 5.6 | 8.4 | 5.1 | 6.9
Cc1ccc(NS(=O)(=O)c2cccc(C#N)c2)c2[nH]cc(C#N)c12 [E7820] | 1.5 | 16.3 | 4.4 | 10.5 | 4.5 | 3.9 | 12.4 | 7.4 | 10.1
CCN1C(=O)CNc2ncc(-c3ccc(-c4nc[nH]n4)nc3C)nc21 [CC-115] | 10.9 | 6.2 | 14.2 | 6.3 | 8.9 | 8 | 6.7 | 16 | 9.5
NC(=O)/C(=C/n1cnc(-c2cc(C(F)(F)F)cc(C(F)(F)F)c2)n1)c1cncnc1 [Eltanexor] | 23 | 23.7 | 16.2 | 16.5 | 12.4 | 12.5 | 13.3 | 23 | 24.5
C=CC(=O)N1CC/C(=C\c2ccc(F)c([N+](=O)[O-])c2)C(=O)/C(=C/c2ccc(F)c([N+](=O)[O-])c2)C1 [VLX1570] | 18.2 | 15.4 | 22.3 | 10.7 | 14.8 | 15.2 | 23 | 14.7 | 25
CC[C@@H](C(=O)[C@@H](C)[C@@H](O)[C@H](C)[C@@H]1O[C@@H]([C@@H](CC)C(=O)O)CC[C@@H]1C)[C@H]1O[C@]2(C=C[C@@H](O)[C@]3(CC[C@@](C)([C@H]4CC[C@](O)(CC)[C@H](C)O4)O3)O2)[C@H](C)C[C@@H]1C [Salinomycin] | 16.6 | 26.1 | 15.4 | 10.6 | 23.3 | 12.5 | 16.4 | 16.5 | 1.1
Nc1cc(F)ccc1NC(=O)c1ccc(CNC(=O)/C=C/c2cccnc2)cc1 [Tucidinostat] | 8.1 | 9 | 6.2 | 4.4 | 7.4 | 7.7 | 0.8 | 4.3 | 5.5
O=C1CCc2c(Oc3ccc4c(c3)[C@@H]3[C@H](O4)[C@H]3c3nc4cc(C(F)(F)F)ccc4[nH]3)ccnc2N1 [BGB-283] | 4.8 | 0.9 | 7.4 | 3.7 | 1 | 4.5 | 4.9 | 5.8 | 6.8
CC1(C)CC[C@]2(NC(=O)C(C)(F)F)CC[C@]3(C)[C@H](C(=O)C=C4[C@@]5(C)C=C(C#N)C(=O)C(C)(C)[C@@H]5CC[C@]43C)[C@@H]2C1 [Omaveloxolone] | 15.8 | 9.7 | 9.3 | 15.9 | 11.6 | 18.7 | 14 | 13.9 | 10
CCS(=O)(=O)Nc1ccc(Oc2ccc(F)cc2F)c(-c2cn(C)c(=O)c3[nH]ccc23)c1 [Mivebresib] | 16.6 | 17.6 | 20.3 | 11.7 | 11.7 | 13.9 | 10.9 | 16.4 | 30.3
